Results as given in patent US7973051B2 (Hoffman-La Roche Inc., priority 2007, dated 2011).

Molecular target: T1, human liver FBPase (Homo sapiens, UniProt P09467)
T1 construct: made in house; host or cells: E. coli
T1 sequence (P09467 2-338 limits assumed): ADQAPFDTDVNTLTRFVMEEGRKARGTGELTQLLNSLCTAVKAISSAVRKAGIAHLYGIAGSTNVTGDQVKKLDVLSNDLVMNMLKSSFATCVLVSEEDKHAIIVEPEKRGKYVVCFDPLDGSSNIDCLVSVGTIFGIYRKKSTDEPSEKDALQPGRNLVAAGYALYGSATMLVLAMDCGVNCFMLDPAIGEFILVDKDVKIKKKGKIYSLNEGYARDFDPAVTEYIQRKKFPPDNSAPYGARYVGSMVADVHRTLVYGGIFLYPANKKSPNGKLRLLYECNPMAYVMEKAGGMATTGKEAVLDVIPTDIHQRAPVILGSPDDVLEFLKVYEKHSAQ
Assay: FBPase assay: inorganic phosphate release (malachite green)
Type: biochemical
Conditions: recombinant human liver FBPase, 50 μM fructose-1,6-bisphosphate, read-out at 620 nm
Procedure: The following tests were carried out for evaluating the inhibitory activity of the compounds of the present invention against human liver FBPase (Swissprot Data base reference P09467, entry F16P_HUMAN).
Human liver FBPase cDNA (NM_000507) was purchased from Origene Technologies, Inc, subcloned in a vector for expression in E. Coli., and sequenced. Recombinant human liver FBPase (hlFBPase) was purified according to the following protocol that uses heat denaturation similarly to that described by El-Maghrabi et. al. [El-Maghrabi, M. R. et al. “Isolation of a human liver fructose-1,6-bisphosphatase cDNA and expression of the protein in Escherichia coli.” J Biol Chem 268:9466-9472, 1993.]. Briefly, E. coli cells, transiently expressing very high levels of soluble and active human liver FBPase, were suspended in 20 mM Tris-HCl pH 7.5, 1 mM EDTA, 1 mM DTT and were lysed by French press. The soluble extract was heat denatured at 65° C. for 5 min, and insoluble, denatured proteins were removed by centrifugation. The extract was then applied to a BioRad Macro-Prep High Q column equilibrated with 20 mM Tris-HCl pH 7.5, 1 mM EDTA, 1 mM DTT and the flow-through (containing FBPase activity) was collected and applied to a BioRad Macro-Prep HS column equilibrated with 20 mM HEPES pH 7.2, 1 mM DTT. A gradient of increasing NaCl concentration was then applied to the HS column and fractions were collected. Fractions containing active FBPase were pooled and further purified by size exclusion chromatography on a Sephacryl S200 column equilibrated in 20 mM Tris-HCl pH 7.5, 150 mM NaCl, 1 mM EDTA, 1 mM DTT. Purity of the enzyme preparation was >90% as assessed by Mass spectrometry.
Recombinant human liver FBPase (hlFBPase) activity was assayed through measuring the inorganic phosphate release that results from the hydrolysis of Fructose-1,6-bisphosphate by the enzyme. As described by Baykov A. A. et al. in [Baykov A. A et al., “Malachite Green procedure for orthophosphate determination and its use in alkaline phosphatase-based enzyme immunoassays”. Anal. Biochem., 171:266-270, 1988], inorganic phosphate can be readily quantified by spectrophotometry at 620 nm after complexation with ammonium molybdate/malachite green reagent. Enzymatic reaction was carried out with modifications of the procedure described by Wright S. W. et al. [Wright S. W. et al., “Anilinoquinazoline inhibitors of Fructose-1,6-bisphosphatase bind to a novel allosteric site: synthesis, in vitro characterization, and X-ray crystallography”. J. Med. Chem. 45:3865-3877, 2002]. Specifically, the reaction was carried out in 96 well plates in a final volume of 100 μl in the presence or in the absence of allosteric inhibitors. Reaction was started adding 25 ng of hlFBPase to the reaction mixture containing 50 mM HEPES-KOH buffer pH 7.2, 2 mM MgCl2, 2 mM EDTA, 1 mM DTT, 50 μM fructose-1,6-bisphosphate and 1% DMSO. After 50 minutes incubation at room temperature, the phosphate released was allowed to form a colored complex for 10 min by adding 150 μl of ammonium molybdate/malachite green reagent containing 0.03% malachite green, 0.2% ammonium molybdate, 0.05% Triton X-100 and 0.7 M H2SO4 in water that was stirred for 30 min at room temperature and filtered through 0.2 μm filter. Under these conditions, the assay was linear with time and able to detect FBPase inhibition after spectrophotometric read-out at 620 nm.

IC50 [nM] | Structure (SMILES)
2250 | COCCn1cc(S(=O)(=O)NC(=O)Nc2ncc(Br)s2)c2ccccc21 [Example 31, N-[(5-Bromo-1,3-thiazol-2-yl)carbamoyl]-1-(2-methoxyethyl)-1H-indole-3-sulfonamide]
653 | COC(=O)c1cccc2c(S(=O)(=O)NC(=O)Nc3ncc(Br)s3)cn(C)c12 [Example 32, Methyl 3-({[(5-bromo-1,3-thiazol-2-yl)carbamoyl]amino}sulfonyl)-1-methyl-1H-indole-7-carboxylate]
71 | COc1cccc2c(S(=O)(=O)NC(=O)Nc3ncc(Br)s3)cn(C)c12 [Example 33, N-[(5-Bromo-1,3-thiazol-2-yl)carbamoyl]-7-methoxy-1-methyl-1H-indole-3-sulfonamide]
296 | Cn1cc(S(=O)(=O)NC(=O)Nc2ncc(Br)s2)c2cccc(Br)c21 [Example 34, 7-Bromo-N-[(5-bromo-1,3-thiazol-2-yl)carbamoyl]-1-methyl-1H-indole-3-sulfonamide]
258 | COCc1oc(S(=O)(=O)NC(=O)Nc2nc(C)c(Br)s2)cc1C [Example 35, N-[(5-Bromo-4-methyl-1,3-thiazol-2-yl)carbamoyl]-5-(methoxymethyl)-4-methylfuran-2-sulfonamide]
315 | COCc1oc(S(=O)(=O)NC(=O)Nc2ncc(Br)s2)cc1C [Example 36, N-[(5-Bromo-1,3-thiazol-2-yl)carbamoyl]-5-(methoxymethyl)-4-methylfuran-2-sulfonamide]
972 | O=C(Nc1ncc(Br)s1)NS(=O)(=O)c1cc2cccc(OCc3ccccc3)c2s1 [Example 37, 7-(Benzyloxy)-N-[(5-bromo-1,3-thiazol-2-yl)carbamoyl]-1-benzothiophene-2-sulfonamide]
179 | COCCOc1cccc2cc(S(=O)(=O)NC(=O)Nc3ncc(Br)s3)sc12 [Example 38, N-[(5-bromo-1,3-thiazol-2-yl)carbamoyl]-7-(2-methoxyethoxy)-1-benzothiophene-2-sulfonamide]
105 | COc1cccc2cc(S(=O)(=O)NC(=O)Nc3ncc(Br)s3)sc12 [Example 39, N-[(5-bromo-1,3-thiazol-2-yl)carbamoyl]-7-methoxy-1-benzothiophene-2-sulfonamide]
329 | COc1cccc2cc(S(=O)(=O)NC(=O)Nc3ncc(Br)s3)n(C)c12 [Example 40, N-[(5-bromo-1,3-thiazol-2-yl)carbamoyl]-7-methoxy-1-methyl-1H-indole-2-sulfonamide]
124 | Cn1cc(S(=O)(=O)NC(=O)Nc2ncc(Br)s2)c2cccc(OCc3ccccc3)c21 [Example 41, 7-(Benzyloxy)-N-[(5-bromo-1,3-thiazol-2-yl)carbamoyl]-1-methyl-1H-indole-3-sulfonamide]
375 | COCCOc1cccc2c(S(=O)(=O)NC(=O)Nc3ncc(Br)s3)cn(C)c12 [Example 42, N-[(5-bromo-1,3-thiazol-2-yl)carbamoyl]-7-(2-methoxyethoxy)-1-methyl-1H-indole-3-sulfonamide]
4060 | COc1cccc2c(S(=O)(=O)NC(=O)Nc3ncc(Br)s3)c[nH]c12 [Example 43, N-[(5-bromo-1,3-thiazol-2-yl)carbamoyl]-7-methoxy-1H-indole-3-sulfonamide]
1320 | COc1cnc(NC(=O)NS(=O)(=O)c2cn(C)c3c(OC)cccc23)s1 [Example 44, 7-Methoxy-N-[(5-methoxy-1,3-thiazol-2-yl)carbamoyl]-1-methyl-1H-indole-3-sulfonamide]
402 | COCCc1sc(S(=O)(=O)NC(=O)Nc2nc3cc(OC)ccc3s2)cc1C [Example 45, N-[(5-Methoxy-1,3-benzothiazol-2-yl)carbamoyl]-5-(2-methoxyethyl)-4-methylthiophene-2-sulfonamide]
3500 | COc1cnc(NC(=O)NS(=O)(=O)c2cn(C)c3c(OCCOC(C)=O)cccc23)s1 [Example 46, 2-{[3-({[(5-Methoxy-1,3-thiazol-2-yl)carbamoyl]amino}sulfonyl)-1-methyl-1H-indol-7-yl]oxy}ethyl acetate]
734 | COc1cnc(NC(=O)NS(=O)(=O)c2cn(C)c3c(OCCO)cccc23)s1 [Example 47, 7-(2-Hydroxyethoxy)-N-[(5-methoxy-1,3-thiazol-2-yl)carbamoyl]-1-methyl-1H-indole-3-sulfonamide]
429 | CC(=O)OCCOc1cccc2c(S(=O)(=O)NC(=O)Nc3ncc(Br)s3)cn(C)c12 [Example 48, 2-{[3-({[(5-Bromo-1,3-thiazol-2-yl)carbamoyl]amino}sulfonyl)-1-methyl-1H-indol-7-yl]oxy}ethyl acetate]
104 | Cn1cc(S(=O)(=O)NC(=O)Nc2ncc(Br)s2)c2cccc(OCCO)c21 [Example 49, N-[(5-Bromo-1,3-thiazol-2-yl)carbamoyl]-7-(2-hydroxyethoxy)-1-methyl-1H-indole-3-sulfonamide]
212 | CCOC(=O)COc1cccc2c(S(=O)(=O)NC(=O)Nc3ncc(Br)s3)cn(C)c12 [Example 50, Ethyl {[3-({[(5-bromo-1,3-thiazol-2-yl)carbamoyl]amino}sulfonyl)-1-methyl-1H-indol-7-yl]oxy}acetate]
137 | Cn1cc(S(=O)(=O)NC(=O)Nc2ncc(Br)s2)c2cccc(OCC(N)=O)c21 [Example 51, 2-{[3-({[(5-Bromo-1,3-thiazol-2-yl)carbamoyl]amino}sulfonyl)-1-methyl-1H-indol-7-yl]oxy}acetamide]
771 | COc1sc(NC(=O)NS(=O)(=O)c2cn(C)c3c(OC)cccc23)nc1C [Example 52, 7-Methoxy-N-[(5-methoxy-4-methyl-1,3-thiazol-2-yl)carbamoyl]-1-methyl-1H-indole-3-sulfonamide]
764 | COc1sc(NC(=O)NS(=O)(=O)c2cn(C)c3c(OCC(N)=O)cccc23)nc1C [Example 53, 2-{[3-({[(5-Methoxy-4-methyl-1,3-thiazol-2-yl)carbamoyl]amino}sulfonyl)-1-methyl-1H-indol-7-yl]oxy}acetamide]
1280 | COc1cnc(NC(=O)NS(=O)(=O)c2cc3cccc(OC)c3s2)s1 [Example 54]
616 | COc1ccc2nc(NC(=O)NS(=O)(=O)c3cc(C)c(CCOC(C)=O)s3)sc2n1 [Example 55, 2-[5-({[(5-methoxy[1,3]thiazolo[5,4-b]pyridin-2-yl)carbamoyl]amino}sulfonyl)-3-methyl-2-thienyl]ethyl acetate]
534 | COc1ccc2nc(NC(=O)NS(=O)(=O)c3cc(C)c(CCO)s3)sc2n1 [Example 56, 5-(2-Hydroxyethyl)-N-[(5-methoxy[1,3]thiazolo[5,4-b]pyridin-2-yl)carbamoyl]-4-methylthiophene-2-sulfonamide]
188 | CCc1nc(NC(=O)NS(=O)(=O)c2csc(C)c2)sc1Br [Example 57, N-[(5-Bromo-4-ethyl-1,3-thiazol-2-yl)carbamoyl]-5-methylthiophene-3-sulfonamide]
155 | CCc1nc(NC(=O)NS(=O)(=O)c2cc(C)c(CCOC)s2)sc1Br [Example 58, N-[(5-Bromo-4-ethyl-1,3-thiazol-2-yl)carbamoyl]-5-(2-methoxyethyl)-4-methylthiophene-2-sulfonamide]
434 | CCc1nc(NC(=O)NS(=O)(=O)c2cc(CCOC)c(C)s2)sc1Br [Example 59, N-[(5-Bromo-4-ethyl-1,3-thiazol-2-yl)carbamoyl]-4-(2-methoxyethyl)-5-methylthiophene-2-sulfonamide]
